Laboratory results published in patent US12433903B2 (priority 2021, dated 2025).

Target: T1, adrenoceptor alpha 2A (ADRA2A) (Homo sapiens, UniProt P08913)
T1 construct: expressed in transfected cells
T1 sequence (P08913 1-465): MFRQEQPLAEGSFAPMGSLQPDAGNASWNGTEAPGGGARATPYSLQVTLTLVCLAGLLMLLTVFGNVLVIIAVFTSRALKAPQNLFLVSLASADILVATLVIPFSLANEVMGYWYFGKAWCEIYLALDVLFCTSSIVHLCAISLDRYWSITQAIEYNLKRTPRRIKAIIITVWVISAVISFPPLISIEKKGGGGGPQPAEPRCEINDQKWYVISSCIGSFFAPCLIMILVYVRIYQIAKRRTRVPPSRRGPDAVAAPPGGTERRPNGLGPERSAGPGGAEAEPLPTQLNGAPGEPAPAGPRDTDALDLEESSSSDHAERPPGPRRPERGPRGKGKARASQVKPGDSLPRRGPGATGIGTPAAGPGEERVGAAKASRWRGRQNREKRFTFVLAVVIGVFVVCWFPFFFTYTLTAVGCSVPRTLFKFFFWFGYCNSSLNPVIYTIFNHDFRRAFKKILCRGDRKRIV
Assay: ADRA2A agonist assay (cAMP secondary messenger pathway, HitHunter cAMP XS+)
Assay type: cell-based
Source text: Compounds of the present disclosure (e.g., one or more compounds of Formula (1), (II), (III), Table 1 or Table 2) may be tested for activity in receptor binding assays using methods known in the art, to evaluate agonist, antagonist, inverse agonist and other modes of activity. For example compounds of the disclosure may be tested in a adrenoceptor alpha 2A (ADRA2A) Agonist assay as follows:
Cell lines stably expressing non-tagged adrenoceptor alpha 2A (ADRA2A) that signal through cAMP were used. Agonist assays monitored by the activation of ADRA2A via Gi or Gs secondary messenger signaling in a homogenous, non-imaging assay format using a technology called Enzyme Fragment Complementation (EFC) with P-galactosidase (p-Gal) as the functional reporter.
The enzyme is split into two complementary portions: EA for Enzyme Acceptor and ED for Enzyme Donor. ED is fused to cAMP and in the assay competes with cAMP generated by cells for binding to a cAMP-specific antibody. Active P-Gal is formed by complementation of exogenous EA to any unbound ED cAMP. Active enzyme can then convert a chemiluminescent substrate, generating an output signal detectable on a standard microplate reader.
• 1. cAMP assay ADRA2A cell lines were expanded from freezer stocks according to standard procedures. • 2. Cells were seeded in a total volume of 20 μL into white walled, 384 well microplates and incubated at 37° C. for the appropriate time prior to testing • 3. cAMP modulation was determined using the DiscoverX HitHunter cAMP XS+ assay Gs Agonist Format • 1. For agonist determination, cells were incubated with sample to induce response. • 2. Media was aspirated from cells and replaced with 15 μL 2:1 HBSS/10 mM Hepes: cAMP XS+Ab reagent. • 3. Intermediate dilution of sample stocks was performed to generate 4× sample in assay buffer. • 4. 5 μL of 4× sample was added to cells and incubated at 37° C. or room temperature for 30 or 60 minutes. Vehicle concentration was 1%. Gi Agonist Format • 1. For agonist determination, cells were incubated with sample in the presence of EC80 forskolin to induce response. • 2. Media was aspirated from cells and replaced with 15 μL 2:1 HBSS/10 mM Hepes: cAMP XS+Ab reagent. • 3. Intermediate dilution of sample stocks was performed to generate 4× sample in assay buffer containing 4× EC80 forskolin. • 4. 5 μL of 4× sample was added to cells and incubated at 37° C. or room temperature for 30 or 60 minutes. Final assay vehicle concentration was 1% Signal Detection • 1. After appropriate compound incubation, assay signal was generated through incubation with 20 μL cAMP XS+ED/CL lysis cocktail for one hour followed by incubation with 20 μL cAMP XS+EA reagent for three hours at room temperature. • 2. Microplates were read following signal generation with a PerkinElmer Envision™ instrument for chemiluminescent signal detection. Data Analysis • 1. Compound activity was analyzed using CBIS data analysis suite (ChemInnovation, CA) • 2. For Gs agonist mode assays, percentage activity is calculated using the following formula: % Activity=100%×(mean RLU of test sample−mean RLU of vehicle control)/(mean RLU of MAX control−mean RLU of vehicle control). • 3. For Gi agonist mode assays, percentage activity is calculated using the following formula: % Activity=100%×(1−(mean RLU of test sample-mean RLU of MAX control)/(mean RLU of vehicle control-mean RLU of MAX control))

**Q.** Which “Curve Bottom” value does the source give for CCCCCc1cc(O)c(C/C=C(\C)CCC=C(C)C)c(O)c1 [CBG, cannabigerol] here?
**A.** Its value is 17.138.

**Q.** And the “Curve Top” value?
**A.** The value was 167.56.

**Q.** And the Hill?
**A.** Its Hill is 1.5564.

**Q.** What about the Emax (read-out: Max Response) of the same compound?
**A.** Its Emax is 163%.

**Q.** What about the EC50 (read-out: RC50 (Result Type EC50)) of the same compound?
**A.** Its EC50 is 1.34 µM.
